Data taken from US20230278983A1, “INDOLE DERIVATIVES AND USES THEREOF FOR TREATING A CANCER” (Universite Claude Bernard Lyon 1, priority 2020, published 2023).

Target: CK2 (Homo sapiens (Human), UniProt P68400)
Assay: Radiometric CK2 kinase assay
Assay type: biochemical
Settings: not given

Sequence of CK2 (P68400 whole entry): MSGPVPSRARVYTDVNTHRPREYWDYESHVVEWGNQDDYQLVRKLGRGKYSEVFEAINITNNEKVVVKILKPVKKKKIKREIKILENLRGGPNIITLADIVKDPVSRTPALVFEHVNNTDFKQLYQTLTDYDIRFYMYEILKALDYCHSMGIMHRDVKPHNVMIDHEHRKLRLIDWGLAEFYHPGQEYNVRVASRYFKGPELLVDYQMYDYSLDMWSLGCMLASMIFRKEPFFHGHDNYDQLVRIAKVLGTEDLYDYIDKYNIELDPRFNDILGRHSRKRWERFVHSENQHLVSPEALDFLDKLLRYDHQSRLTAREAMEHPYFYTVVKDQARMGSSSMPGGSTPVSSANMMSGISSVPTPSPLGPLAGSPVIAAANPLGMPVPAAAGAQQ

Structure (SMILES) | IC50 [nM]
CC(C)COC(=O)c1[nH]c2ccc(F)cc2c1-c1cn(CC2CCN(CCNS(=O)(=O)c3ccc4c(c3)CCC4)CC2)nn1 [AB932, isobutyl 3-(1-((1-(2-((2,3-dihydro-1H-indene)-5-sulfonamido)ethyl)piperidin-4-yl)methyl)-1H-1,2,3-triazol-4-yl)-5-fluoro-1H-indole-2-carboxylate] | 75
COCc1ccccc1-c1ccc(S(=O)(=O)NCCN2CCC(Cn3cc(-c4c(C(=O)OCC(C)C)[nH]c5ccc(F)cc45)nn3)CC2)cc1 [AB1303] | 33
CC(C)COC(=O)c1[nH]c2ccc(Cl)cc2c1-c1cn(CC2CCN(CCNS(=O)(=O)c3ccc4ccccc4c3)CC2)nn1 [AB599, Isobutyl 5-chloro-3-(1-((1-(2-(naphthalene-2-sulfonamido)ethyl)piperidin-4-yl)methyl)-1H-1,2,3-triazol-4-yl)-1H-indole-2-carboxylate] | 3200
CC(C)COC(=O)c1[nH]c2ccc(F)cc2c1-c1cn(CC2CCN(CCNS(=O)(=O)c3ccc(Cl)cc3)CC2)nn1 [AB498, Isobutyl 3-(1-((1-(2-((4-chlorophenyl)sulfonamido)ethyl)piperidin-4-yl)methyl)-1H-1,2,3-triazol-4-yl)-5-fluoro-1H-indole-2-carboxylate] | 830
CC(=O)c1[nH]c2ccc(F)cc2c1-c1cn(CC2CCN(CCNS(=O)(=O)c3ccc(CC(C)C)cc3)CC2)nn1 [AB1135, N-(2-(4-((4-(2-acetyl-5-fluoro-1H-indol-3-yl)-1H-1,2,3-triazol-1-yl)methyl)piperidin-1-yl)ethyl)-4-isobutylbenzenesulfonamide] | 48
CCOC(=O)c1[nH]c2ccc(F)cc2c1-c1cn(CC2CCN(CCNS(=O)(=O)c3ccc(C(C)C)cc3)CC2)nn1 [AB579, Ethyl 5-fluoro-3-(1-((1-(2-((4-isopropylphenyl)sulfonamido)ethyl)piperidin-4-yl)methyl)-1H-1,2,3-triazol-4-yl)-1H-indole-2-carboxylate] | 430
O=S(=O)(NCCN1CCC(Cn2cc(-c3c[nH]c4ccccc34)nn2)CC1)c1ccccc1 [AB150, N-(2-(4-((4-(1H-Indol-3-yl)-1H-1,2,3-triazol-1-yl)methyl)piperidin-1-yl)ethyl)benzenesulfonamide] | 48500
CCOC(=O)c1[nH]c2cc(Cl)ccc2c1-c1cn(CC2CCN(CCNS(=O)(=O)c3ccc(Cl)cc3)CC2)nn1 [AB433, Ethyl 6-chloro-3-(1-((1-(2-((4-chlorophenyl)sulfonamido)ethyl)piperidin-4-yl)methyl)-1H-1,2,3-triazol-4-yl)-1H-indole-2-carboxylate] | 8100
CC(C)COC(=O)c1[nH]c2ccc(F)cc2c1-c1cn(CC2CCN(CCNS(=O)(=O)c3ccc(-c4cn[nH]c4)cc3)CC2)nn1 [AB1032, isobutyl 3-(1-((1-(2-((4-(1H-pyrazol-4-yl)phenyl)sulfonamido)ethyl)piperidin-4-yl)methyl)-1H-1,2,3-triazol-4-yl)-5-fluoro-1H-indole-2-carboxylate] | 200
CCOC(=O)c1[nH]c2ccc(Cl)cc2c1-c1cn(CC2CCN(CCNS(=O)(=O)c3ccc(C(C)C)cc3)CC2)nn1 [AB582, Ethyl 5-chloro-3-(1-((1-(2-((4-isopropylphenyl)sulfonamido)ethyl)piperidin-4-yl)methyl)-1H-1,2,3-triazol-4-yl)-1H-indole-2-carboxylate] | 1250
CC(C)COC(=O)c1[nH]c2ccc(F)cc2c1-c1cn(CC2CCN(CCNS(=O)(=O)c3ccc(OC(F)(F)F)cc3)CC2)nn1 [AB912, isobutyl 5-fluoro-3-(1-((1-(2-((4-(trifluoromethoxy)phenyl)sulfonamido)ethyl)piperidin-4-yl)methyl)-1H-1,2,3-triazol-4-yl)-1H-indole-2-carboxylate] | 300

Same assay, conditions: compound at 0.05 μM; ATP 10 μM

Structure (SMILES) | inhibition at 0.05 µM [%]
CCCC(=O)c1[nH]c2ccc(F)cc2c1-c1cn(CC2CCN(CCNS(=O)(=O)c3ccc(-c4cccnc4Cl)cc3)CC2)nn1 [AB1233, N-(2-(4-((4-(2-butyryl-5-fluoro-1H-indol-3-yl)-1H-1,2,3-triazol-1-yl)methyl)piperidin-1-yl)ethyl)-4-(2-chloropyridin-3-yl)benzenesulfonamide] | 17

Same assay, conditions: compound at 0.10 μM; ATP 10 μM

Structure (SMILES) | inhibition at 0.1 µM [%]
CCCC(=O)c1[nH]c2ccc(F)cc2c1-c1cn(CC2CCN(CCNS(=O)(=O)Cc3ccc(C(F)(F)F)cc3)CC2)nn1 [AB1307, N-(2-(4-((4-(2-butyryl-5-fluoro-1H-indol-3-yl)-1H-1,2,3-triazol-1-yl)methyl)piperidin-1-yl)ethyl)-1-(4-(trifluoromethyl)phenyl)methanesulfonamide] | 12
CC(=O)c1[nH]c2ccc(F)cc2c1-c1cn(CC2CCN(CCNS(=O)(=O)N3CCC(c4cccnc4F)CC3)CC2)nn1 [AB1322, N-(2-(4-((4-(2-acetyl-5-fluoro-1H-indol-3-yl)-1H-1,2,3-triazol-1-yl)methyl)piperidin-1-yl)ethyl)-4-(2-fluoropyridin-3-yl)piperidine-1-sulfonamide] | 10

Same assay, conditions: compound at 1 μM; ATP 10 μM

Structure (SMILES) | inhibition at 1 µM [%]
CC(C)COC(=O)c1[nH]c2ccc(F)cc2c1-c1cn(CC2CCN(S(=O)(=O)c3ccc(C(C)(C)C)cc3)CC2)nn1 [AB938] | 5
CCc1ccc(S(=O)(=O)NCCN2CCC(Cn3cc(-c4c(C(=O)OCCC(C)C)[nH]c5ccc(F)cc45)nn3)CC2)cc1 [AB663, Isopentyl 3-(1-((1-(2-((4-ethylphenyl)sulfonamido)ethyl)piperidin-4-yl)methyl)-1H-1,2,3-triazol-4-yl)-5-fluoro-1H-indole-2-carboxylate] | 11
CC(C)COC(=O)c1[nH]c2ccc(F)cc2c1-c1cn(CC2CCN(Cc3ccc(-c4ccc5[nH]ccc5c4)c(Cl)c3)CC2)nn1 [AB753, Isobutyl 3-(1-((1-(3-chloro-4-(1H-indol-5-yl)benzyl)piperidin-4-yl)methyl)-1H-1,2,3-triazol-4-yl)-5-fluoro-1H-indole-2-carboxylate] | 18
CC(=O)c1cccc(-c2ccc(CN3CCC(Cn4cc(-c5c(C(=O)OCC(C)C)[nH]c6ccc(F)cc56)nn4)CC3)cc2Cl)c1 [AB739, Isobutyl 3-(1-((1-((3′-acetyl-2-chloro-[1,1′-biphenyl]-4-yl)methyl)piperidin-4-yl)methyl)-1H-1,2,3-triazol-4-yl)-5-fluoro-1H-indole-2-carboxylate] | 7

Same assay, conditions: inhibition of CK2 activity; ATP 10 μM

Structure (SMILES) | IC50 [nM]
CC(C)CC(=O)c1[nH]c2ccc(F)cc2c1-c1cn(CC2CCN(CCNS(=O)(=O)Cc3ccc(C(F)(F)F)cc3)CC2)nn1 [AB1306, N-(2-(4-((4-(5-fluoro-2-(3-methylbutanoyl)-1H-indol-3-yl)-1H-1,2,3-triazol-1-yl)methyl)piperidin-1-yl)ethyl)-1-(4-(trifluoromethyl)phenyl)methanesulfonamide] | 450
CC(C)COC(=O)c1[nH]c2ccc(F)cc2c1-c1cn(CC2CCN(CCNS(=O)(=O)Cc3ccc(C(F)(F)F)cc3)CC2)nn1 [AB935, isobutyl 5-fluoro-3-(1-((1-(2-(((4-(trifluoromethyl)phenyl)methyl)sulfonamido)ethyl)piperidin-4-yl)methyl)-1H-1,2,3-triazol-4-yl)-1H-indole-2-carboxylate] | 49
O=C(c1[nH]c2ccc(F)cc2c1-c1cn(CC2CCN(CCNS(=O)(=O)Cc3ccc(C(F)(F)F)cc3)CC2)nn1)C1CC1 [AB1305, N-(2-(4-((4-(2-(cyclopropanecarbonyl)-5-fluoro-1H-indol-3-yl)-1H-1,2,3-triazol-1-yl)methyl)piperidin-1-yl)ethyl)-1-(4-(trifluoromethyl)phenyl)methanesulfonamide] | 480
